Reference: ChEMBL document CHEMBL1135648, “Synthesis and evaluation of no-carrier-added 8-cyclopentyl-3-(3-[(18)F]fluoropropyl)-1-propylxanthine ([(18)F]CPFPX): a potent and selective A(1)-adenosine receptor antagonist for in vivo imaging” (J Med Chem, 2002)

Experiments:
Mus musculus [1] = experiment: In vivo biodistribution in NMRI (Naval Medical Research Institute) mice spleen at the dose of 0.15-0.2 nmol at 2 min; format: ADME, organism-based
Mus musculus [2] = experiment: In vivo biodistribution in NMRI (Naval Medical Research Institute) mice liver at the dose of 0.15-0.2 nmol at 40 min; format: ADME, organism-based
Mus musculus [3] = experiment: In vivo biodistribution in NMRI (Naval Medical Research Institute) mice heart at the dose of 0.15-0.2 nmol at 10 min; format: ADME, organism-based
Mus musculus [4] = experiment: In vivo biodistribution in NMRI (Naval Medical Research Institute) mice blood at the dose of 0.15-0.2 nmol at 60 min; format: ADME, organism-based; conditions: 1 h
Adenosine receptor A1 [5] = target: T1, Adenosine receptor A1 (Rattus norvegicus, UniProt P25099); experiment: In vitro binding affinity at rat Adenosine A1 receptor
T1 sequence (P25099 whole entry): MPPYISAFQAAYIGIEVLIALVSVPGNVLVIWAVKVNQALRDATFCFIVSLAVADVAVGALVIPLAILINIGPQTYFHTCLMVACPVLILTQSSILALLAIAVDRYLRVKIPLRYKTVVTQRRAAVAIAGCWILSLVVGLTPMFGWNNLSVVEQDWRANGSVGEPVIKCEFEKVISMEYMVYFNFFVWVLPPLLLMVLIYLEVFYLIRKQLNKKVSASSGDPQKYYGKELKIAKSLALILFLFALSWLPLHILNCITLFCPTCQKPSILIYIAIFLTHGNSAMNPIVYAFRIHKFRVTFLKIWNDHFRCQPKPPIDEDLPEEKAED

Mus musculus [6] = experiment: In vivo biodistribution in NMRI (Naval Medical Research Institute) mice brain at the dose of 0.15-0.2 nmol at 40 min; format: ADME, organism-based
Adenosine receptor A1 [7] = target: T2, Adenosine receptor A1 (Homo sapiens, UniProt P30542); experiment: In vitro binding affinity for human Adenosine A1 receptor expressed in CHO-K1 cells; format: cell-based
T2 sequence (P30542 whole entry): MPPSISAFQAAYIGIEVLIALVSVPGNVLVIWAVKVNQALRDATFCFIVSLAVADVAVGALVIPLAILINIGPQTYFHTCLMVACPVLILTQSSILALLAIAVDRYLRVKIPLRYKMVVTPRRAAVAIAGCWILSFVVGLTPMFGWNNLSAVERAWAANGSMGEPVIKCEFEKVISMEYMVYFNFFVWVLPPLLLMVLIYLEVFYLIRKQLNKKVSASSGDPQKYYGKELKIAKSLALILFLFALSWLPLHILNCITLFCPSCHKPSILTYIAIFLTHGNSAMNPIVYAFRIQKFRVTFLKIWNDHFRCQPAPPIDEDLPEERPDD

Mus musculus [8] = experiment: In vivo biodistribution in NMRI (Naval Medical Research Institute) mice pancreas at the dose of 0.15-0.2 nmol at 5 min; format: ADME, organism-based
Mus musculus [9] = experiment: In vivo biodistribution in NMRI (Naval Medical Research Institute) mice bone at the dose of 0.15-0.2 nmol at 40 min; format: ADME, organism-based, Bone element
Mus musculus [10] = experiment: In vivo biodistribution in NMRI (Naval Medical Research Institute) mice brain at the dose of 0.15-0.2 nmol at 5 min; format: ADME, organism-based
Mus musculus [11] = experiment: In vivo biodistribution in NMRI (Naval Medical Research Institute) mice heart at the dose of 0.15-0.2 nmol at 20 min; format: ADME, organism-based
Mus musculus [12] = experiment: In vivo biodistribution in NMRI (Naval Medical Research Institute) mice lung at the dose of 0.15-0.2 nmol at 2 min; format: ADME, organism-based
Mus musculus [13] = experiment: In vivo biodistribution in NMRI (Naval Medical Research Institute) mice brain at the dose of 0.15-0.2 nmol at 60 min; format: ADME, organism-based; conditions: 1 h
Mus musculus [14] = experiment: In vivo biodistribution in NMRI (Naval Medical Research Institute) mice heart at the dose of 0.15-0.2 nmol at 60 min; format: ADME, organism-based; conditions: 1 h
Mus musculus [15] = experiment: In vivo biodistribution in NMRI (Naval Medical Research Institute) mice intestine at the dose of 0.15-0.2 nmol at 40 min; format: ADME, organism-based
Adenosine receptor A1 [16] = target: T3, Adenosine receptor A1 (Bos taurus, UniProt P28190); experiment: In vitro binding affinity for Adenosine A1 receptor of bovine cortex
T3 sequence (P28190 whole entry): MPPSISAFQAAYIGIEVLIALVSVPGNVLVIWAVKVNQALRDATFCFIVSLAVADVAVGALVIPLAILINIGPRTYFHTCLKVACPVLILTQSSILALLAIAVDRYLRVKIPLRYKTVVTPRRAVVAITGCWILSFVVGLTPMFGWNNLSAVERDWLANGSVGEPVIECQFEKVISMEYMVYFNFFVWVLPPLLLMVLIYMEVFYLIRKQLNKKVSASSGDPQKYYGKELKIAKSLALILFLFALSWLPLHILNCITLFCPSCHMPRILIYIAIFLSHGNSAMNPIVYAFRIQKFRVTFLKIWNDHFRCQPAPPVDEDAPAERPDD

[17] = Ultrafiltration in human plasma; format: functional
Mus musculus [18] = experiment: In vivo biodistribution in NMRI (Naval Medical Research Institute) mice spleen at the dose of 0.15-0.2 nmol at 40 min; format: ADME, organism-based
Mus musculus [19] = experiment: In vivo biodistribution in NMRI (Naval Medical Research Institute) mice lung at the dose of 0.15-0.2 nmol at 40 min; format: ADME, organism-based
Mus musculus [20] = experiment: In vivo biodistribution in NMRI (Naval Medical Research Institute) mice intestine at the dose of 0.15-0.2 nmol at 60 min; format: ADME, organism-based; conditions: 1 h
Mus musculus [21] = experiment: In vivo biodistribution in NMRI (Naval Medical Research Institute) mice brain at the dose of 0.15-0.2 nmol at 20 min; format: ADME, organism-based
Mus musculus [22] = experiment: In vivo biodistribution in NMRI (Naval Medical Research Institute) mice blood at the dose of 0.15-0.2 nmol at 20 min; format: ADME, organism-based
Mus musculus [23] = experiment: In vivo biodistribution in NMRI (Naval Medical Research Institute) mice kidney at the dose of 0.15-0.2 nmol at 2 min; format: ADME, organism-based
Mus musculus [24] = experiment: In vivo biodistribution in NMRI (Naval Medical Research Institute) mice brain at the dose of 0.15-0.2 nmol at 10 min; format: ADME, organism-based
Mus musculus [25] = experiment: In vivo biodistribution in NMRI (Naval Medical Research Institute) mice lung at the dose of 0.15-0.2 nmol at 60 min; format: ADME, organism-based; conditions: 1 h
Mus musculus [26] = experiment: In vivo biodistribution in NMRI (Naval Medical Research Institute) mice kidney at the dose of 0.15-0.2 nmol at 20 min; format: ADME, organism-based
Mus musculus [27] = experiment: In vivo biodistribution in NMRI (Naval Medical Research Institute) mice bone at the dose of 0.15-0.2 nmol at 60 min; format: ADME, organism-based, Bone element; conditions: 1 h
Mus musculus [28] = experiment: In vivo biodistribution in NMRI (Naval Medical Research Institute) mice spleen at the dose of 0.15-0.2 nmol at 20 min; format: ADME, organism-based
Mus musculus [29] = experiment: In vivo biodistribution in NMRI (Naval Medical Research Institute) mice intestine at the dose of 0.15-0.2 nmol at 10 min; format: ADME, organism-based
Mus musculus [30] = experiment: In vivo biodistribution in NMRI (Naval Medical Research Institute) mice spleen at the dose of 0.15-0.2 nmol at 60 min; format: ADME, organism-based; conditions: 1 h
Mus musculus [31] = experiment: In vivo biodistribution in NMRI (Naval Medical Research Institute) mice splee nat the dose of 0.15-0.2 nmol at 10 min; format: ADME, organism-based
Mus musculus [32] = experiment: In vivo biodistribution in NMRI (Naval Medical Research Institute) mice spleen at the dose of 0.15-0.2 nmol at 5 min; format: ADME, organism-based

ID/g (Mus musculus [1]): 2.25%
ID/g (Mus musculus [2]): 9.61%
ID/g (Mus musculus [3]): 3.83%
ID/g (Mus musculus [4]): 1.55%
Kd (Adenosine receptor A1 [5]): 0.63 nM
ID/g (Mus musculus [6]): 2.52%
Kd (Adenosine receptor A1 [7]): 1.26 nM
ID/g (Mus musculus [8]): 3.35%
ID/g (Mus musculus [9]): 2.18%
ID/g (Mus musculus [10]): 2.37%
ID/g (Mus musculus [11]): 4.11%
ID/g (Mus musculus [12]): 5.35%
ID/g (Mus musculus [13]): 1.55%
ID/g (Mus musculus [14]): 1.63%
ID/g (Mus musculus [15]): 3.74%
Ki (Adenosine receptor A1 [16]): 0.18 nM
ID/g (Mus musculus [18]): 1.79%
ID/g (Mus musculus [19]): 5.7%
ID/g (Mus musculus [20]): 9.13%
ID/g (Mus musculus [21]): 2.39%
ID/g (Mus musculus [22]): 4.13%
ID/g (Mus musculus [23]): 4.68%
ID/g (Mus musculus [24]): 2.44%
ID/g (Mus musculus [25]): 2.43%
ID/g (Mus musculus [26]): 6.05%
ID/g (Mus musculus [27]): 2.27%
ID/g (Mus musculus [28]): 1.78%
ID/g (Mus musculus [29]): 3.08%
ID/g (Mus musculus [30]): 0.84%
ID/g (Mus musculus [31]): 1.77%
ID/g (Mus musculus [32]): 1.56%
SMILES: CCCn1c(=O)c2nc(C3CCCC3)[nH]c2n(CCC[18F])c1=O
Ultrafiltration [17]: 86
